Results from patent US10076511B2, “Bisamide derivative of dicarboxylic acid as an agent for stimulating tissue regeneration and recovery of diminished tissue function” (TREAMID GmbH, priority 2015, dated 2018).
Where “and” joins values, the source holds several entries; their conditions need not be identical. Equal values may be shown once. Marks after values point to notes of the source that are not given here.

Legend:
male Wistar rats = assay: Sperm motility in asthenospermia simulated with Etoposide; format: in vivo, rat; details: for percentage of motile sperm cells: Treamid 5.0 mg/kg for 10 days after administration of Etoposide; for The number of motile sperm cells (in %): 5 days before and 5 days after Etoposide (preventive course), Treamid 5.0 mg/kg
Description: The use of the drug that induces an increase in the free radical level was due to the fact that according to modern ideas, the direct cause of asthenospermia is oxidative stress (Kao S. H. et. al. Increase of oxidativestress in human sperm with lower motility. Fertil. and Steril. 2008; 89: 5: 1183-1190).
The experiments were performed on 50 male Wistar rats (3 months of age). Etoposide was administered once intravenously at the maximum tolerated dose of 30 mg/kg.
The effectiveness of Treamid was assessed by the percentage of motile sperm forms isolated from the epididymis.
In the first series, the results of the studies were compared with those obtained for administration of the reference drug, Speman, that was administered intragastrically at a dose of 140 mg/kg.

male CBA/CaLac mice = assay: Chronic toxic hepatitis model (CCl4), liver histology; format: in vivo, mouse; details: Day 28; Treamid 10 mg/kg intragastrically Day 14-27
Description: Chronic toxic hepatitis was induced in the male CBA/CaLac mice by intragastric administration of a 20% carbon tetrachloride (CCl4) solution in olive oil in a volume of 0.2 ml/mouse on Days 0, 3, 7, 10, 14, and 17 of the study. Treamid was administered at a dose of 10 mg/kg intragastrically once daily, every day from Day 14 to Day 27 of the study. On day 28, the animals were euthanized in a CO2 chamber and a liver biopsy sample was taken for histological analysis.
For histological examination, the liver was fixed in a 10% neutral formalin solution and then poured into paraffin by the standard method. Deparaffined sections of a thickness of 5 μm were stained: 1) with hematoxylin and eosin according to the standard procedure for routine histological examination; and 2) with picrofuxin for the calculation of the area of connective tissue, using a graphic data processing software.

male rats = assay: Benign prostatic hyperplasia (BPH) model induced with Sulpiride, prostate weight and morphometry; format: in vivo, rat
Description: This is manifested in a decrease in the severity of the morphological changes typical in these diseases. CAP was simulated by suturing the ventral lobe of the gland with a silk thread, and BPH was simulated by the administration of Sulpiride. The reference drug was Prostamol Uno.
Animals with BPH received Teramide intragastrically for 2 months at a dose of 0.5 mg/kg.
Experiments were performed on 40 male Wistar rats (3 months of age). To simulate chronic abacterial prostatitis, the ventral lobe of the prostate was sutured with a silk thread (under anesthesia). The model of benign prostatic hyperplasia (BPH) was simulated in rats by inducing hyperprolactinaemia, for which male rats were intraperitoneally injected with Sulpiride at a dose of 40 mg/kg every day for 2 months (Eglonil, Sanofi Winthrop Industry, France).
The ability of Treamid to normalize the structure of the prostate gland was studied in the presence of administration of Sulpiride. For this purpose, Treamid was administered intragastrically for 2 months at a dose of 0.5 mg/kg simultaneously with Sulpirid. The control animals received a solvent (2% starch mucus) in an equivalent volume. The animals of the comparison group were injected intragastrically with a solution of Prostamol Uno at a dose of 50 mg/kg. At the end of the administration course, the animals were weighed and euthanized in a CO2 chamber. Sulpiride is known to cause the development of BPH in the lateral lobe of the gland in rats [Van Coppenolle Fabien, Christian Slomianny, Francoise Carpentier Effects of hyperprolactinemia on rat prostate growth: evidence of androgeno—dependence.//Physiol. Endocrinol. Metab.—2001.—P. 120-129]. In this regard, this lobe was dissected. Its weight, weight coefficient, and volume were determined. Further, it was subjected to a morphological analysis. The lateral lobe of the prostate gland was fixed in 10% formalin and poured into paraffin, followed by preparation of sections of a thickness of 5 μm. Deparaffined sections of the gland were stained with hematoxylin and eosin. On the histological sections, the presence of proliferative centers and daughter acini were determined per standard section area. In addition, the area of the epithelial and stromal structures was measured on the standard area of a histological section. These parameters were determined by using a computer graphic analysis on the standard area of a histological section (micrographs of 10 serial visual fields performed by an AxioCam Erc5s camera mounted on an AxioLab A1 microscope (×10 lens, ×10 eyepiece), with an image transfer software of “AxioVision LE”, Carl Zeisis). The stromal-epithelial ratio was defined as a ratio of the area of stroma to the area of epithelium.
The effectiveness of the test compound was estimated by the following criteria: lower intensity of morphological symptoms of benign prostatic hyperplasia:—a decrease in the number of proliferation centers and daughter acini, and a decrease in the area of the epithelium.

[1] = tested on: precursors for spermatogenic tissue; assay: Growth of colonies from CFU-Sp with in vitro addition of Treamid; format: cell-based, rat; details: Cells of the testes of intact rats
Description: The precursor cells of the studied organ were cultured by using an underlayer (represented by the cells of the adherent fraction) prepared in advance in a 96-well plate, as described above.
Further, a nonadherent cell fraction of spermatogenic tissue was isolated from the two groups of animals (intact animals and animals received Paclitaxel intravenously 24 hours prior to the study) and was transferred to the resulting underlayer in complete culture medium (80% DMEM, 20% FCS, L-glutamine, antibiotics, heparin) at a concentration of 2×10^5/ml. Prior to the incubation in the complete culture medium, Treamid was added at a concentrations of 1 ng/ml, 3 ng/ml, 10 ng/ml, 30 ng/ml, 100 ng/ml, 300 ng/ml and 1000 ng/ml. The incubation lasted for 7 days in a CO2 incubator at 37° C., 5% CO2 and 100% air humidity. After the incubation, the number of colony-forming units, spermatogenic (CFU-Sp)—clusters of more than 30 cells of round shape and of various diameters—was counted.
The effectiveness of Treamid was estimated by a significant increase in the number of cells giving rise to CFU-Sp in the culture with the addition of the test compound, compared to that in the control.
The direct action of Treamid on the precursors for spermatogenic tissue was studied in vitro by addition of Treamid to the cell culture at concentrations of 1, 30, 100, and 1000 ng/ml.

[2] = Treamid 0.5 mg/kg 2 months, Prostamol Uno 50 mg/kg

Question: Which results are given for `O=C(CCCC(=O)NCCc1ncc[nH]1)NCCc1ncc[nH]1` [Treamid]?
Answer: percentage of motile sperm cells (male Wistar rats; group M ± m): 71.01 ± 1.80 %; The number of motile sperm cells (in %) (male Wistar rats; group X ± m, Speman 140 mg/kg): 79.83 ± 1.88#*⋄ %; The number of motile sperm cells (in %) (male Wistar rats; individual animals, Speman 140 mg/kg intragastrically): 77.42% and 79.09% and 82.72% and 74.67% and 85.26%; percentage of motile sperm cells (male Wistar rats; individual males): 74.55% and 69.44% and 70.20% and 65.52% and 75.34%; content of connective tissue in the liver compared to the pathological control (male CBA/CaLac mice): markedly reduced; histological pattern of the liver (male CBA/CaLac mice): did not differ from that of the intact control; Volume of the lateral lobe of the prostate gland, cm^3 (male rats; [2]): 0.62 ± 0.14# cm^3; Weight coefficient of the lateral lobe of the prostate gland (male rats; [2]): 0.69 ± 0.12 mg/g; Weight of the lateral lobe of the prostate gland (male rats; [2]): 381.67 ± 70.30 mg; Relative area (%) of the acinar epithelium on the standard area of a section of the lateral lobe (male rats; group M ± m): 13.89 ± 2.08 %; Relative area (%) of the stroma on the standard area of a section of the lateral lobe (male rats; group M ± m): 45.66 ± 2.30 %; The number of daugter proliferative centers (abs.) (male rats; group M ± m): 1.60 ± 0.60 abs.; The number of structures (abs.) consisting of 2-3 glandules tightly adjacent to each other (male rats; group M ± m): 1.60 ± 0.81 abs.; Relative area (%) of the acinar epithelium on the standard area of a section of the lateral lobe (male rats; individual animals): 10.26% and 14.09% and 16.30% and 20.19% and 8.61%; Relative area (%) of the stroma on the standard area of a section of the lateral lobe (male rats; individual animals): 48.61% and 45.59% and 44.14% and 38.12% and 51.82%; The number of daugter proliferative centers (abs.) (male rats; individual animals): 3 abs. (2×) and 1 abs. (2×) and 0 abs.; The number of structures (abs.) consisting of 2-3 glandules tightly adjacent to each other (male rats; individual animals): 1 abs. and 3 abs. and 4 abs. and 0 abs. (2×); CFU-Sp per 4 × 10^4 nuclears ([1]; Treamid 1 ng/ml): 6.83 ± 0.48 per 4 × 10^4 nuclears; CFU-Sp per 4 × 10^4 nuclears ([1]; Treamid 30 ng/ml): 6.0 ± 0.36 per 4 × 10^4 nuclears; CFU-Sp per 4 × 10^4 nuclears ([1]; Treamid 100 ng/ml): 8.50 ± 0.42 per 4 × 10^4 nuclears; CFU-Sp per 4 × 10^4 nuclears ([1]; Treamid 1000 ng/ml): 11.67 ± 1.81 per 4 × 10^4 nuclears
